Here are results for 7 compounds from patent US20220143050A1, “mTOR Inhibitor” (priority 2019, published 2022).

Data set [1] relates to MSK-1. Put plainly: Phosphorylation of MSK-1 in LPS-stimulated CD14+ monocyte (western blot). To be noted: 10 μM, 2 hours, 100 ng/mL LPS, 30 minutes after LPS, FIG. 4B. (Immunoblotting shows a protein as a band on a membrane.)
Data set [2] deals with Akt1 (Homo sapiens, UniProt P31749). Kind of data set: Surface plasmon resonance analysis of binding to Akt. To be noted: Akt1 fixed on CM5 sensor chip, 25° C.; FIG. 7C. Here is the method: The binding affinity of the peptide for the compound was analyzed using a surface plasmon resonance biosensor (Biacore X 100, GE Healthcare). Akt1 or BSA was fixed on the surface of a CM5 sensor chip using an amine coupling kit (GE Healthcare). Compounds at different concentrations, which were diluted with phosphate buffered saline containing 5% DMSO (10 mM phosphate buffer, 2.7 mM KCl, 137 mM NaCl, 0.05% surfactant P20, pH 7.4), were injected into the sensor chip at a flow rate of 20 μL/min at 25° C. for 120 seconds, and subsequently a buffer solution not containing the compounds was applied for 180 seconds. Kinetic parameters were determined by subtracting the bulk effect of DMSO using a reference flow cell and analyzing the data using Biacore X100 evaluation software (GE Healthcare).

Data set [3] concerns LPS-stimulated peripheral blood mononuclear cell (PBMC). Kind of data set: Regulation of cytokine profile in LPS-stimulated PBMC (BioPlex / ELISA). It counts as cell-based, human. To be noted: for IL-10 production (ELISA) / IL-12p70 production (ELISA): PBMC pretreated 2 hours at various concentrations, 100 ng/mL LPS, supernatant 24 hours after LPS. The text has this:
A peripheral blood mononuclear cell (PBMC) was separated from blood collected from a healthy volunteer (HV) and a chronic hepatitis B patient by a concentration gradient method. CD3+ T cell, CD19+B cell, CD56+NK cell, and CD14+ monocyte were respectively separated using magnetic antibodies.

Data set [4] relates to Akt. Put plainly: Phosphorylation of Akt in LPS-stimulated CD14+ monocyte (western blot). It counts as cell-based, human. To be noted: 100 ng/mL LPS.
In data set [5] the test system is GSK-3β. Kind of data set: Phosphorylation of GSK-3β in LPS-stimulated CD14+ monocyte (western blot). It counts as cell-based, human. To be noted: 2 hours treatment, 100 ng/mL LPS, 2 hours after LPS, FIG. 4E.
In data set [6] the test system is HT1080 cell stably expressing Akt 2-PH-EGFP. Put plainly: Transition of Akt to the cell membrane, fluorescent immunochemical staining / confocal microscope. It counts as cell-based. To be noted: treated 2 hours, FIG. 7B. As for the experimental part:
AKT2-PH-EGFP tagged with HA was inserted into a pCSII-EF1α-MCS-IRES2-Blasticidin lentivirus vector. The lentivirus was infected with a HT1080 cell, and the cell was cultured in a DMEM solution containing […] of blasticidin. For observation of the intracellular migration of PH-EGFP, phosphorylated Akt, and Akt-PH-EGFP, after culturing HT1080 cell expressing each of them on a cover glass with DMSO, LAM, ADV, ETV, and TDF for 2 hours, the cell was fixed with 3.7% formalin, and thereafter nuclear staining of phosphorylated AKt (S473) and DAPI were performed to observe under a microscope.

Data set [7] concerns PTEN. Put plainly: PTEN and pPTEN expression in CD14+ monocyte (western blot of cytosol and nuclear fractions). The conditions noted are these: pretreated 2 hours, FIG. 9. It is filed as cell-based, human. The text has this: The results obtained by further fractionating the cell into a cytosol fraction and a nuclear fraction, and performing western blot analysis on each of the obtained fractions are shown. Poly-ADP-ribose polymerase (PARP) is the internal control of a nuclear protein, and β-actin is the internal control of the cytosol fraction. The number n is at least 3.
For the separation of the cytoplasm and the cell membrane, a MEM-PERTMPlus cell membrane protein extraction kit was used, and the protocol indicated by the product was followed. Briefly speaking, the collected cell was washed and then reacted with a buffer (to perforate the cell membrane) at 4° C. for 10 minutes. After centrifuging at 16,000 g for 15 minutes, the supernatant was collected in a new tube (cytoplasmic component). The precipitate (cell membrane) in the tube in the previous step was washed once with the above-mentioned buffer, and then reacted with a cell membrane melting buffer at 4° C. for 30 minutes while occasionally applying vibration. Thereafter, after centrifuging at 16,000 g for 15 minutes, the supernatant was collected in a new tube (cell membrane component). The cytoplasmic and nuclear components were separated using a cytoplasm/nuclear extraction kit. […]

The test system of data set [8] is CD14+ monocyte transfected with rictor siRNA. Kind of data set: IL-10 production in CD14+ monocyte after silencing rictor (mTORC2) by siRNA. It is filed as cell-based, human. To be noted: pretreated 2 hours, 100 ng/mL LPS, ELISA 24 hours after LPS, FIG. 10. As for the experimental part: The results of confirming the expression levels of rictor, raptor, and β-actin 48 hours after transfection are shown. […] Chemically synthesized nucleotide siRNA including control siRNA was obtained from Santa Cruz (Dallas, Tex., USA). A cell was transfected with siRNA using a Nucleofector kit (Lonza, Cologne, Germany).
For orientation: ELISA stands for enzyme-linked immunosorbent assay.

Data set [9] has as its system liver cancer cell lines (HepG2, PLC/PRF/5, Huh7, Hep3B, SKHep-1, HLE). Kind of data set: Antitumor effect in liver cancer cell lines, intracellular ATP amount (CellTiter-Glo). The conditions noted are these: cultured 72 hours, all of the cell lines; FIG. 12. It counts as cell-based. A general note: Cellular ATP, detected with luciferase, serves as a proxy for viable cell number.

Data set [10] deals with human liver cancer cell line (HepG2). Put plainly: Phosphorylation of mTOR pathway proteins in HepG2 (western blot). It is filed as cell-based. The conditions noted are these: for phosphorylation of Akt and S6K and 4-EBP downstream thereof: HepG2, western blot. As for the experimental part:
After culturing the human liver cancer cell line (HepG2) in LAM, ETV, ADV, and TDF, phosphorylation of Akt in the mTOR pathway and S6K and 4-EBP downstream thereof was analyzed by western blot. Then, the phosphorylation of the above-mentioned proteins was suppressed in ADV and TDF in a dose-dependent manner, but there was no change in LAM and ETV.

The subject of data set [11] is mouse liver cancer cell lines (MHCF1 and MHCF5) and a mouse colon cancer cell line (CMT-93). Kind of data set: Phosphorylation of Akt and GSK-3β in mouse cancer cell lines (western blot). It is filed as cell-based. To be noted: MHCF1, MHCF5 and CMT-93, western blotting; data not disclosed.
For data set [12], the system named is HepG2. Put plainly: Subcutaneous HepG2 tumor in immunodeficient mice (NOD-SCID). To be noted: 90 mg/kg intraperitoneally every 3 days; for subcutaneous tumor diameter: measured 6 weeks after, vs DMSO group, p<0.05 or p<0.005, data not disclosed. It is filed as in vivo, mouse. As for the experimental part:
90 mg/kg of DMSO (negative control), ETV, ADV, and TDF were intraperitoneally administered to 6-week-old immunodeficient mice (NOD-SCID), respectively (5 animals in each of the groups), HepG2 (5×10^6 cells) was subcutaneously administered 1 week after the start of administration, and the subcutaneous tumor diameter was measured 6 weeks thereafter. Each drug was intraperitoneally administered every 3 days from the start to the end of observation.

Data set [13] relates to IFN-λ3. The conditions noted are these: hepatitis B patients taking the drug; cited from earlier work.
The test system of data set [14] is intestinal cell. To be noted: in vitro system; cited from earlier work.
The subject of data set [15] is p70S6K. Put plainly: Phosphorylation of p70S6K in LPS-stimulated CD14+ monocyte (western blot). The conditions noted are these: 100 ng/mL LPS, cell collected 2 hours after LPS, FIG. 4C.
For data set [16], the system named is LPS-stimulated PBMC. To be noted: PBMC treated ex vivo with nucleic acid analog, IFN-α and LPS; FIG. 2.
Procedure: In the case of interferon (IFN)-α alone, 10, 100, and 1000 U/mL were used.
Many types of cytokines in the culture supernatant were measured using a Bio-Plex Human Cytokine Panel (which enables measurement at one time).
Ex vivo treatment of the PBMC was performed with a nucleic acid analog, IFN-α, and LPS, and the levels of IL-10 and IL-12p70 in the supernatant were measured.
The subject of data set [17] is phosphatidylinositol-3 kinase and phosphoinositide-dependent kinase 1. Kind of data set: Phosphorylation of proteins upstream of Akt in LPS-stimulated CD14+ monocyte (western blot). To be noted: pretreated 2 hours, 100 ng/mL LPS, 2 hours after LPS, FIG. 7A.
Procedure: An Akt inhibitor 2 (Akt-1/2) and bovine serum albumin (BSA) were respectively used as a positive control and a negative control.
The phosphorylation of several proteins upstream of Akt, such as phosphatidylinositol-3 kinase and phosphoinositide-dependent kinase 1, was analyzed.
The subject of data set [18] is ERK. The conditions noted are these: CD14+ monocyte, 10 μM, 2 hours, 100 ng/mL LPS, 30 minutes after LPS; FIG. 4B.
The subject of data set [19] is Akt. Kind of data set: Phosphorylation of Akt in LPS-stimulated PBMC (western blot). It is filed as cell-based, human. To be noted: various concentrations, cell recovered 2 hours after LPS, FIG. 7E.
Where [20] appears, read: PBMC from HV, pretreated 2 hours with nucleic acid analog, then LPS, BioPlex cytokine assay, FIG. 1A.

Structures are written as SMILES. Counter-ions that a name gives are not always drawn.

Akt1, sequence (P31749 whole entry): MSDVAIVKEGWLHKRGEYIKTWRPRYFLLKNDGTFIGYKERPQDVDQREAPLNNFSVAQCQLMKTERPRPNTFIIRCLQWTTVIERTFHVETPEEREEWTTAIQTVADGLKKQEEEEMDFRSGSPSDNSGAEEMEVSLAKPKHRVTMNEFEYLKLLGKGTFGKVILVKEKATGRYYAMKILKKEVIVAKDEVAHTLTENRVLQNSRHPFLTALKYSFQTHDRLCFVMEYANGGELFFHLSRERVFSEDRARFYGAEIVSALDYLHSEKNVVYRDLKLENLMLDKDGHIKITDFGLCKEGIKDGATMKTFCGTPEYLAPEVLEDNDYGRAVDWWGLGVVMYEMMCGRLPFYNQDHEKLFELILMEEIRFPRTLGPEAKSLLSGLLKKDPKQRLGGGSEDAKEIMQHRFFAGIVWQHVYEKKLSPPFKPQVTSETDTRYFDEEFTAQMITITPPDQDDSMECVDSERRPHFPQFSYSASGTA

Turning to `Oc1ccc(-c2nc(-c3ccncc3)c(-c3ccc(F)cc3)[nH]2)cc1` [SB202198], the “phosphorylation of MSK-1” value in [1] is recorded as “inhibited”.

For the compound `C[C@H](Cn1cnc2c(N)ncnc21)OCP(=O)(O)OP(=O)(O)O` [TFV, tenofovir monophosphate], in data set [2], the “binding to the Akt protein (surface plasmon resonance biosensor)” value was “bound to the Akt protein in a dose-dependent manner”.

As for `CC(C)OC(=O)OCOP(=O)(CO[C@H](C)Cn1cnc2c(N)ncnc21)OCOC(=O)OC(C)C` [TDF, tenofovir disoproxil fumarate], in [3] (LPS-stimulated PBMC, 1:3 dilution, FIG. 1C), the “dose dependence of the regulation of IL-12p70, IL-10 and TNF-α” value is recorded as “dose dependent”. In [3] (setting [20]), the “LPS-induced IL-10 production” value was “inhibited”, the “LPS-induced IL-12p70 production” value is recorded as “significantly induced” and the “LPS-induced TNF-α production” value is reported as “significantly induced”. In addition, the “phosphorylation of Akt, dose dependence” value in data set [4] (CD14+ monocyte, 1:3 dilution, FIG. 4D) is listed as “inhibited the phosphorylation of Akt in a dose-dependent manner”. Besides, the “phosphorylation of Akt” value in data set [4] (CD14+ monocyte, cell collected 2 hours after LPS, FIG. 4C) is “inhibited”. In addition, the “phosphorylation of GSK-3β” value in data set [5] is “inhibited”. Also, the “transposition of Akt-PH to the cell membrane” value in data set [6] (HT1080 cell, confocal microscope) is on record as “significantly inhibited”. In addition, in [6] (HT-1080 cell, anti-phospho-Akt staining), the “phosphorylation of Akt (Ser 473) in HT-1080 cell” value was “inhibited”. For the same compound, in [7], the “PTEN or pPTEN expression level” value is listed as “did not affect”. Moreover, the “restoration of the decrease in IL-10 levels by silencing rictor” value in data set [8] is recorded as “not restored”. In addition, the “number of a survived cell (intracellular ATP amount)” value in data set [9] is “significantly reduced”. Further, the “phosphorylation of Akt and S6K and 4-EBP downstream thereof” value in data set [10] was “suppressed”. Besides, the “phosphorylation of mTOR-related protein (Akt and GSK-3β (S9))” value in [10] (HepG2 cell, western blotting, data not disclosed) is “suppressed”. Further, the “phosphorylation of mTOR-related protein (Akt and GSK-3β (S9))” value in data set [11] is on record as “not recognized”. In addition, in data set [12], the “tumor growth in one example of the group” value is recorded as “did not grow at all” and the subcutaneous tumor diameter result is given as “suppressed”. For the same compound, the “serum IFN-λ3 value” in [13] was “high value”. Further, in data set [14], the IFN-λ3 induction result is “induces”. In addition, in [15], the “phosphorylation of p70S6K” value is on record as “inhibited”. The “LPS-mediated IL-12p70 production in combination with IFN-α” value in data set [16] is reported as “synergistically enhanced”. In addition, the “phosphorylation of proteins upstream of Akt (phosphatidylinositol-3 kinase and phosphoinositide-dependent kinase 1)” value in data set [17] was “did not inhibit”.

Take `NC(=O)c1ncn([C@@H]2O[C@H](CO)[C@@H](O)[C@H]2O)c1N` [AICAR, 5-Aminoimidazole-4-carboxamide-1-β-D-ribofuranoside]: in data set [3], the “IL-10 production (ELISA)” value is reported as “inhibited” and the “IL-12p70 production (ELISA)” value was “induced”. For the same compound, in data set [4] (CD14+ monocyte pretreated 2 hours at various concentrations, 2 hours after LPS, FIG. 11B), the “phosphorylation of Akt” value is on record as “enhanced phosphorylation of Akt in a dose-dependent manner”.

On to `N#CC(=C(/N)Sc1ccccc1N)/C(C#N)=C(\N)Sc1ccccc1N` [U0126], for which the “phosphorylation of ERK” value in [18] is recorded as “inhibited”.

On to `C=C1[C@H](CO)[C@@H](O)C[C@@H]1n1cnc2c(=O)[nH]c(N)nc21` [ETV, entecavir], for which the “LPS-induced cytokine production (IL-10, IL-12p70, and TNF-α) compared with DMSO” value in [3] (setting [20]) is “only the same effect as that of DMSO”. For the same compound, the “number of a survived cell (intracellular ATP amount)” value in data set [9] is listed as “not recognized”. In addition, in data set [10], the “phosphorylation of Akt and S6K and 4-EBP downstream thereof” value is “no change”. Also, the subcutaneous tumor diameter result in data set [12] was “not different”.

For the compound `CCCCCCCCCCCCCCCCCCOP(=O)([O-])OC1CC[N+](C)(C)CC1` [perifosine], in data set [3], the “IL-10 production (ELISA)” value was “decreased” and the “IL-12p70 production (ELISA)” value is “increased”. The “phosphorylation of Akt” value in [19] is given as “inhibited phosphorylation of Akt in a dose-dependent manner”.
